Series [1] is described as follows: Drug uptake in liver of KM mouse xenografted with […] cells expressing integrin at 0.5 nmol/g, iv measured after 24 hrs by fluorescence imaging method. The series is classed as ADME, organism-based. As to conditions: in vivo; call rule not given here.
Series [2] has as its system MCF7. Nature of the series: Photocytotoxicity against human MCF7 cells with low expression of alphaVbeta3 integrin assessed as decrease in cell viability preincubated for 24 hrs followed by red light irradiation and measured after overnight incubation by MTT assay. The series is classed as functional, cell-based. The note with it: MCF7, light or radiation study.
Series [3] in a line: Drug uptake in tumor of KM mouse xenografted with […] cells expressing integrin at 0.5 nmol/g, iv measured after 24 hrs by fluorescence imaging method. As to conditions: in vivo. It is filed as ADME, organism-based, Neoplasm. (A xenograft is tissue or cells of one species grown in another, often human tumour cells in immunodeficient mice.)
The nature of series [4]: Drug uptake in human HT-29 cells at 1 uM after 2 to 24 hrs by confocal laser scanning microscopic method. The series is classed as ADME, cell-based. The note with it: ht-29, 1 µM.
The nature of series [5]: Selectivity ratio of IC50 for human MCF7 cells with low expression of alphaVbeta3 integrin to IC50 for human HT-29 cells with high expression of alphaVbeta3 integrin preincubated for 2 hrs followed by red light irradiation and measured after overnight incubation by MTT assay. The series is classed as functional. For orientation: Formazan colour is commonly taken as a measure of viable cells.

Series [6] concerns MCF7. Briefly: Photocytotoxicity against human MCF7 cells with low expression of alphaVbeta3 integrin assessed as decrease in cell viability preincubated for 2 hrs followed by red light irradiation and measured after overnight incubation by MTT assay. The series is classed as functional, cell-based. As to conditions: MCF7, light or radiation study.
Series [7] is described as follows: Drug uptake in skin of KM mouse xenografted with […] cells expressing integrin at 0.5 nmol/g, iv measured after 24 hrs by fluorescence imaging method. As to conditions: in vivo. The series is classed as ADME, organism-based, Zone of skin.
A short description of series [8]: Drug uptake in lung of KM mouse xenografted with […] cells expressing integrin at 0.5 nmol/g, iv measured after 24 hrs by fluorescence imaging method. It is filed as ADME, organism-based. The note with it: in vivo.
Series [9] in a line: Drug uptake in lysosome of human HT-29 cells at 1 uM incubated for 0.5 hrs by Lyso Tracker red dye-based confocal laser scanning microscopic method. It is filed as ADME, subcellular. The note with it: ht-29, 0.5 h.
A short description of series [10]: Drug uptake in spleen of KM mouse xenografted with […] cells expressing integrin at 0.5 nmol/g, iv measured after 24 hrs by fluorescence imaging method. The series is classed as ADME, organism-based. As to conditions: in vivo.
Series [11] can be described thus: Drug uptake in mitochondria of human HT-29 cells at 1 uM incubated for 0.5 hrs by Mito Tracker green dye-based confocal laser scanning microscopic method. It is filed as ADME. The note with it: ht-29, 0.5 h.
Another series has as its system Mus musculus. Nature of the series: Drug uptake in KM mouse xenografted with […] cells at 0.5 nmol/g, iv measured up to 24 hrs by fluorescence imaging method. It is filed as ADME, organism-based. The note with it: in vivo.
The nature of series [12]: Photostability in DMF assessed as release of singlet oxygen at 4 uM preincubated with DPBF in dark followed by irradiation with red light by DPBF decay assay. It is filed as functional.
The nature of series [13]: Selectivity ratio of IC50 for human MCF7 cells with low expression of alphaVbeta3 integrin to IC50 for human HT-29 cells with high expression of alphaVbeta3 integrin preincubated for 24 hrs followed by red light irradiation and measured after overnight incubation by MTT assay. The series is classed as functional.
Series [14] deals with HT-29. Briefly: Photocytotoxicity against human HT-29 cells with high expression of alphaVbeta3 integrin assessed as decrease in cell viability preincubated for 2 hrs followed by red light irradiation and measured after overnight incubation by MTT assay. The series is classed as functional, cell-based. The note with it: HT-29, light or radiation study.
The nature of series [15]: Drug uptake in kidney of KM mouse xenografted with […] cells expressing integrin at 0.5 nmol/g, iv measured after 24 hrs by fluorescence imaging method. The series is classed as ADME, organism-based. The note with it: in vivo.
Series [16] can be described thus: Aggregation behavior of compound in DMF by UV-vis absorption spectra analysis. The series is classed as physicochemical.
Series [17] concerns HT-29. Briefly: Photocytotoxicity against human HT-29 cells with high expression of alphaVbeta3 integrin assessed as decrease in cell viability preincubated for 24 hrs followed by red light irradiation and measured after overnight incubation by MTT assay. It is filed as functional, cell-based. As to conditions: HT-29, light or radiation study.
A short description of series [18]: Drug uptake in heart of KM mouse xenografted with […] cells expressing integrin at 0.5 nmol/g, iv measured after 24 hrs by fluorescence imaging method. It is filed as ADME, organism-based. The note with it: in vivo.

This note sets out measurements from ChEMBL document CHEMBL4152282, “Synthesis and photodynamic activities of integrin-targeting silicon(IV) phthalocyanine-cRGD conjugates” (Eur J Med Chem, 2018).

By IC50 is commonly meant the point on the concentration scale where inhibition reaches its midpoint. With `OCCOCCOCCO[Si]1(OCCOCCOCCO)n2c3c4ccccc4c2/N=C2N=C(/N=c4/c5ccccc5/c(n41)=N/C1=NC(=N\3)/c3ccccc31)c1ccccc1\2`, the Drug uptake entry in [1] is listed as “Not Active”; in [3], “Not Active”; in [4], “Active”; in [7], “Not Active”; in series [8] it was “Not Active”; in series [9] it was “Active”. Besides, the Drug uptake result in series [10] is listed as “Not Active”; in [11], “Active”; in the series with Mus musculus, “Not Active”; in series [15] it was “Not Active”; in [18], “Not Active”. Further, the IC50 in the series on MCF7 [2], in the series on MCF7 [6], in the series with HT-29 [14] and in the series on HT-29 [17] was 0.3 nM throughout. The “Ratio IC50” value in series [5] and in [13] was 1 in each case. Further, the Stability entry in series [12] is “Unstable”. Besides, in series [16], the Activity entry is recorded as “Not Active”.
